Data reported in ChEMBL document CHEMBL1201862, “PubChem BioAssay data set” (2004).
Active and inactive are the calls of the source. Rule as the data show it: actives have a measured IC50 and inactives only a lower limit.

Target: Envelope glycoprotein gp160 (Human immunodeficiency virus 1, UniProt Q6QLK5)
Assay: cell-free HIV fusion peptide-binding blockers – biochemical, uHTS, fluorescence dequenching, […] (AID 1986)

Sequence of Envelope glycoprotein gp160 (Q6QLK5 whole entry, the tested form may be a part): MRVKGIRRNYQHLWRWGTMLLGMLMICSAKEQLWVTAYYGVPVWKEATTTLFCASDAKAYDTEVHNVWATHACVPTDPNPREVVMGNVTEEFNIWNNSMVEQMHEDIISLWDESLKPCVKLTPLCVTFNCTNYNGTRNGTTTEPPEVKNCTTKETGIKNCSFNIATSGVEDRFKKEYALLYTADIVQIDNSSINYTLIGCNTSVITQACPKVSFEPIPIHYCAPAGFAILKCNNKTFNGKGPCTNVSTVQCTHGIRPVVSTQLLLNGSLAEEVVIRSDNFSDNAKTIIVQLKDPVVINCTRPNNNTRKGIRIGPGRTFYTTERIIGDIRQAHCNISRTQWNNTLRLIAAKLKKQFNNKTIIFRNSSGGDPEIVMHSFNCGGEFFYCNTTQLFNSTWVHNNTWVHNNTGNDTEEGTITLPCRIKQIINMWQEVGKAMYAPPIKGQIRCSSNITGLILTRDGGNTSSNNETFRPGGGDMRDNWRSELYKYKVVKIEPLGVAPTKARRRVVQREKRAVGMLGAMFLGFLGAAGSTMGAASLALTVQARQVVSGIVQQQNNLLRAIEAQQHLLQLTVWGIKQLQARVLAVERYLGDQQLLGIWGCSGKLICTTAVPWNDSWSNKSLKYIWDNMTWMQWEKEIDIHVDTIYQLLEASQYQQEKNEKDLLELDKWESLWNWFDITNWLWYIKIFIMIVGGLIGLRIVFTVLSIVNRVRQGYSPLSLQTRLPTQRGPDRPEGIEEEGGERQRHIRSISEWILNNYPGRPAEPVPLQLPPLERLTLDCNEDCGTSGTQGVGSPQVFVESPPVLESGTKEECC

**Q.** For COc1cc(/C=C2\SC(=O)N(c3ccccc3Cl)C2=O)cc([N+](=O)[O-])c1O, which IC50 is on record?
**A.** 24.7 µM (active)
